The subject of series [1] is integrin-positive M21 melanoma. As to the kind of experiment: In vivo NIR imaging of human melanoma xenograft, integrin-positive. The note with it: for Visualization of tumor in NIR image: M21 melanoma, 24 hr after i.v. injection, 3 nmol/mouse. On the set-up: species or system mice. The source says:
(§1) In vivo fluorescence imaging was accomplished by illuminating the animal with light from a laser diode (35 mW) expanded to an approximate 8 cm diameter circular area. The fluorescent light re-emitted from the animal was collected by an image intensifier (model FS9910C, ITT Night Vision, Roanoke, Va.) lens-coupled to a CCD camera (model CH350, Photometrics, Tucson, Ariz.). The imaging was designed so that the field of view could be varied from 3×3 cm to over 12×12 cm by varying the image distance of the 50 mm lens used to focus the image onto the photocathode of the intensifier. The lens was fitted with a holographic notch-plus filter (660 nm center wavelength; Kaiser Optical Systems, Inc., Ann Arbor, Mich.) and a bandpass filter (710 nm center wavelength) to reject back-scattered and reflected excitation photons. Image acquisition was accomplished using V++ software (Digital Optics, Auckland, New Zealand) and the obtained images were stored in uncompressed tagged image file format (tiff). Data processing and analysis were accomplished using Matlab software (The MathWorks, Inc., Natick, Mass.). For all imaging sessions, the image acquisition parameters were kept constant, and each image required 800 ms of camera integration.

A further series has as its system KS1767 cells. The format is cell-based. Particulars: 1 h. As for the experimental part:
A Cell Adhesion Assay was additionally performed. KS1767 cells were seeded in DMEM/F12 culture medium supplemented with 10% fetal bovine serum for 24 hr. Cells (1×10^5) with different concentrations of c(KRGDf; SEQ ID NO. 3) or Cy5.5-c(KRGDf; SEQ ID NO. 3) were added to vitronectin-coated microliter wells under serum-free conditions and incubated at 37° C. for 1 hr. After washing steps, the bound cells were stained with 5% crystal violet, followed by addition of 0.1M HCl to each well. The concentrations of crystal violet were determined by UV/V is absorption at 627 nm. IC50 values were estimated from the dose-activity curves.

The target in the next series is T1, αvβ3 integrin (Homo sapiens, UniProt P05106+P06756).
T1 construct: endogenous in cells; host or cells: KS1767 sarcoma cells
Briefly: In vitro blockage study of Cy5.5-c(KRGDf) binding to KS1767 cells (fluorescence microscopy). The class given is cell-based. The procedure: KS1767 sarcoma cells were maintained at 37° C. in a humidified atmosphere containing 5% CO2 in Dulbecco's Modified Eagle's Medium/Nutrient Mixture F-12 Ham (DMEM/F12) and 10% FBS (Gibco, Grand Island, N.Y.).
Cells were seeded on cover slips in 24-well plates (Becton Dickinson Labware, Franklin Lakes, N.J.) and incubated in DMEM/F12 culture medium (0.5 ml/well) overnight. Unconjugated c(KRGDf; SEQ ID NO. 3) was added to the culture medium at various concentrations. Cy5.5-c(KRGDf; SEQ ID NO. 3) was added one hour later to each well at a concentration of 6 μM. Cells were washed twice with PBS and incubated in a solution of Sytox Green in 95% ethyl alcohol (1 μM, Molecular Probe, Eugene, Oreg.) for 15 minutes to fix and stain cell nuclei. Cells were washed again with PBS and the cover slips were mounted for microscopic examination using a DMR microscope (Leica Microsystems Inc., Bannockburn, Ill.). The microscope was equipped with a 75W Xenon lamp, 775 nm/845 nm, 560 nm/645 nm, and 480 nm/535 nm (Excitation/emission) filters (Chroma Technology Corp., Brattleboro, Vt.), a Hamamatsu B/W Chilled CCD Camera (Hamamatsu Photonics K.K., Hamamatsu City, Japan), and an Image-Pro Plus 4.5.1 software (Media Cybernetics, Silver Spring, Md.). In the multiple staining images, Cy5.5 was pseudocolored red and Sytox Green was green.

Series [2] has as its system KS1767 tumors. Briefly: In vivo NIR imaging of subcutaneous KS1767 tumors with RGD imaging agent. Also noted: species or system mice.
Source text: Cy5.5-c(KRGDf; SEQ ID NO. 3) may be used in near infrared (NIR) imaging. Mice inoculated with KS1767 were used for in vivo NIR studies. The mice were four to six week-old athymic nude mice (18-22 g, Harlan Sprague Dawley, Inc. Indianapolis, Ind.) which were housed 5 per cage and fed with sterilized pellet chow (Harlan Sprague Dawley) and sterilized water. The animals were maintained in a pathogen-free mouse colony in the Department of Veterinary Medicine at the University of Texas M.D. Anderson Cancer Center. All experiments were performed in accordance with the guidelines of the Institutional Animal Care and Use Committee.
Tumor cells for use in the animals were harvested near confluence by incubation with 0.05% trypsin-EDTA. Cells were pelleted by centrifugation at 450×g for 5 minutes and resuspended in sterile PBS. […] cells/animal were implanted subcutaneously into the chest wall or hind legs of the mice. Imaging studies were performed when tumors reached 4-6 mm in average diameter.
as §1
For dynamic in vivo fluorescence imaging, mice were anesthetized with an i.p. injection of 50 mg/kg pentobarbital, and a catheter was placed in the tail vein for i.v. injection of NIR dyes. A white-light image of the animal was obtained using a low-power lamp as a white light source with holographic and interference filters removed. Fluorescence images were then acquired as a function of time following administration of Cy5.5 (6 nmol per/mouse) or Cy5.5-c(KRGDf; SEQ ID NO. 3) (6 nmol per/mouse). […]

Series [3] has as its system KS1767 tumors. As to the kind of experiment: Dynamic in vivo NIR imaging, tumor ROI versus normal muscle ROI. Also noted: species or system mice. The procedure: For dynamic in vivo fluorescence imaging, mice were anesthetized with an i.p. injection of 50 mg/kg pentobarbital, and a catheter was placed in the tail vein for i.v. injection of NIR dyes. A white-light image of the animal was obtained using a low-power lamp as a white light source with holographic and interference filters removed. Fluorescence images were then acquired as a function of time following administration of Cy5.5 (6 nmol per/mouse) or Cy5.5-c(KRGDf; SEQ ID NO. 3) (6 nmol per/mouse). For blocking studies, c(KRGDf; SEQ ID NO. 3) (600 nmol/mouse) was injected intravenously at 1 hr and 24 hr prior to the injection of Cy5.5-c(KRGDf; SEQ ID NO. 3). The acquisition time was 800 ms. Images were obtained every 6 seconds (s) for up to 20 minutes (min) following injection of each imaging agent. Each mouse was imaged again 24 hr after contrast injection.
Two regions of interest (ROI) were selected for quantitative analyses. One ROI was located entirely within the circumference of the tumor, and the other, of approximate equivalent size, defined a symmetric region of normal tissue located opposite the tumor site. (See FIG. 32A.) Utilizing Matlab software, the mean of the fluorescence intensity within each ROI was computed for every fluorescence image acquired. Data were acquired from the tumor ROI. (See FIG. 32B.) Data were acquired from normal muscle ROI. […] The symbols denote experimental measurements while the solid line denotes the corresponding least-squares fit. Animals were injected with Cy5.5-c(KRGDf; SEQ ID NO. 3) alone (6 nmol) (□), or Cy5.5-cc(KRGDf; SEQ ID NO. 3) 1 hr (∘) and 24 hr (⋄) after the injection of unconjugated c(KRGDf; SEQ ID NO. 3) peptide (600 nmol).

For series [4], the target named is αvβ3 integrin (on KS1767 cells) (UniProt P06756). Briefly: cell-based or functional assay.
Series [5] is described as follows: Stability assay in serum-containing culture medium (HPLC). The format is in vitro ADME. Particulars: 25° C.; for Degradation in culture medium: 3 hours. As for the experimental part: Each test peptide was incubated in a serum-containing culture medium (Dulbecco's Modified Eagle's Medium/Nutrient Mixture F-12 Ham and 10% FBS) (1 mg/ml) at 25° C. At various time intervals, aliquots of peptide solution (50 μL) were withdrawn and subjected to HPLC analysis. The percentage of remaining intact peptide was recorded as a function of time.

The test system of series [6] is integrin-negative M21-L melanoma. Briefly: In vivo NIR imaging of human melanoma xenograft, integrin-negative. Also noted: species or system mice.
Source text: as §1

Residues, ends and D or L forms follow the SMILES beside them.

αvβ3 integrin (on KS1767 cells), sequence (P06756 31-1048, chain 1 of 2): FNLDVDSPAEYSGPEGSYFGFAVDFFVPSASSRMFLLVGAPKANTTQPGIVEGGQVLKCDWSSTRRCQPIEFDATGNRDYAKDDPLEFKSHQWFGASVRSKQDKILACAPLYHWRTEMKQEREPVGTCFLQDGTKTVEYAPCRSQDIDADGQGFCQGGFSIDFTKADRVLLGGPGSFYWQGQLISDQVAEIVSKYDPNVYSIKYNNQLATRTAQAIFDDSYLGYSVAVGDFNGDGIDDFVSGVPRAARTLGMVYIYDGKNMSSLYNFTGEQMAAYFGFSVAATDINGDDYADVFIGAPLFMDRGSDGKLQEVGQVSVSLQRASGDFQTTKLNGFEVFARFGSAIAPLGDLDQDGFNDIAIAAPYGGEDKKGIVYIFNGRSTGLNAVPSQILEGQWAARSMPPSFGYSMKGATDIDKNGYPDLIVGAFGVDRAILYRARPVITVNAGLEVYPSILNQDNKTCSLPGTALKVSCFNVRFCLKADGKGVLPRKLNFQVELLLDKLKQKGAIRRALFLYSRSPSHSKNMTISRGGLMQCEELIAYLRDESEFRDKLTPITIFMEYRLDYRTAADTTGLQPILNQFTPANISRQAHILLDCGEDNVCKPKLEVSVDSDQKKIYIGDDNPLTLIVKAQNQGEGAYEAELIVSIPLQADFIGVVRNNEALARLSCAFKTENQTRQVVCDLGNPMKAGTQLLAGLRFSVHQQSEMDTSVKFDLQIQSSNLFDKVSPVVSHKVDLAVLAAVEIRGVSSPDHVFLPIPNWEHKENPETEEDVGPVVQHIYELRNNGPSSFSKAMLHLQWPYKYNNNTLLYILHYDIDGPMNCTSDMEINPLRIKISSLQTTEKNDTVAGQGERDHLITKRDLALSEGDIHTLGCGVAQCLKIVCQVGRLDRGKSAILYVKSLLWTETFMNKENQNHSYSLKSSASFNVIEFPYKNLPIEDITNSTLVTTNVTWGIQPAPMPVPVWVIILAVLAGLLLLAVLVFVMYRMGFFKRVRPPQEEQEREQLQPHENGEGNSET
αvβ3 integrin (on KS1767 cells), sequence (P05106 27-788, chain 2 of 2, further chain): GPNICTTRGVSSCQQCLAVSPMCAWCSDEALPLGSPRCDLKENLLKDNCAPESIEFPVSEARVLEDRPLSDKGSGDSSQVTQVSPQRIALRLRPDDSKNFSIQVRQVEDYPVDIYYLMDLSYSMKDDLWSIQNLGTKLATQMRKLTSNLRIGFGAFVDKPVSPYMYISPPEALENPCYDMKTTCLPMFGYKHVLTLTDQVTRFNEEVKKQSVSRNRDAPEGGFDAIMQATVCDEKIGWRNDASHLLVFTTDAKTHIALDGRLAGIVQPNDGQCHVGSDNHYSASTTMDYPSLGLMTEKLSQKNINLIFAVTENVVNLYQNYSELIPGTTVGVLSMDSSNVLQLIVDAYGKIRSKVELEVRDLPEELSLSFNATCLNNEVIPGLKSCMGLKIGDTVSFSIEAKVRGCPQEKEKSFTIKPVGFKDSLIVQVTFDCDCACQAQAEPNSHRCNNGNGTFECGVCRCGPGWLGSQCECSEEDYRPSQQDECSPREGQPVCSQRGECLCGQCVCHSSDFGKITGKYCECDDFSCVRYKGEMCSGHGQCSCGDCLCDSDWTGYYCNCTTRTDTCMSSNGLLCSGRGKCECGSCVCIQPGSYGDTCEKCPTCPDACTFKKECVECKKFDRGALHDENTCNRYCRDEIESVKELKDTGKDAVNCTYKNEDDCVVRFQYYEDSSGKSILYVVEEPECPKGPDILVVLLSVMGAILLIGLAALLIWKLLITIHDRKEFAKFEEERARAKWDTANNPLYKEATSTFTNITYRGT
T1 sequence (P06756 31-889 limits assumed): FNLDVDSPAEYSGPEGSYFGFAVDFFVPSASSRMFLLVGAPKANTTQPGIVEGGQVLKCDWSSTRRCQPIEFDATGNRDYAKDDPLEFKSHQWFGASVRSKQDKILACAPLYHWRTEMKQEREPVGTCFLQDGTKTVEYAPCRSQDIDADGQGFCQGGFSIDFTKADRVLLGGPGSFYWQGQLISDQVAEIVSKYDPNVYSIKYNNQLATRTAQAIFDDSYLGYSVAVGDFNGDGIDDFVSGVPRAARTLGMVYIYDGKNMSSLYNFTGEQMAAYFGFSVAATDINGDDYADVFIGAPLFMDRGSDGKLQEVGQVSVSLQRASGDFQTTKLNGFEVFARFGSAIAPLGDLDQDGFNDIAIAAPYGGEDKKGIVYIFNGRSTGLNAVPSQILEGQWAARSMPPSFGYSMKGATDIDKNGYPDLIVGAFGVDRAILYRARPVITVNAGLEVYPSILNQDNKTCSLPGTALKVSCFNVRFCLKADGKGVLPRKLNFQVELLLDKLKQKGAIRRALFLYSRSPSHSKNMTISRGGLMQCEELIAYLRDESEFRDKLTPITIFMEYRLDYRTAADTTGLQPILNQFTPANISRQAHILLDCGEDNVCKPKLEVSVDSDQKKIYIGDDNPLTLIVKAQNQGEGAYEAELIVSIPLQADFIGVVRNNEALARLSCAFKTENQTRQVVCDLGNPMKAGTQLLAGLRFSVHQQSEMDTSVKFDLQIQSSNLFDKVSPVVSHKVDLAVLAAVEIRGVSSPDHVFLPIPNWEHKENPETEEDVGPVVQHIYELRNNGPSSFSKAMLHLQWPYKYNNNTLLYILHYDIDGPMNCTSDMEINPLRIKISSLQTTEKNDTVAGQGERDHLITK
T1 sequence (P06756 891-1048 partner limits assumed): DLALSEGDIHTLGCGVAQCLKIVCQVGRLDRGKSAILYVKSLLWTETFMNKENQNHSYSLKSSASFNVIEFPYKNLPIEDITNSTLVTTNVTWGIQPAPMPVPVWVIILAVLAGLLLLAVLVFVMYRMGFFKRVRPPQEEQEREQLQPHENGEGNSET
T1 sequence (P05106 27-788): as the sequence (P05106 27-788, chain 2 of 2, further chain) above

On to `CC1(C)C(/C=C/C2=C(Oc3ccc(S(=O)(=O)O)cc3)C(=C/C=C3/N(CCCCS(=O)(=O)O)c4ccc(S(=O)(=O)[O-])cc4C3(C)C)/CCC2)=[N+](CCCCCC(=O)O)c2ccc(S(=O)(=O)O)cc21` [IRDye800, reference compound], for which, in series [1], the “Visualization of tumor in NIR image” value is “did not have detectable signal”.
As for `N=C(N)NCCC[C@@H]1NC(=O)[C@H](CCCCN)NC(=O)[C@@H](Cc2ccccc2)NC(=O)[C@H](CC(=O)O)NC(=O)CNC1=O` [c(KRGDf; SEQ ID NO. 3), cyclo(Lys-Arg-Gly-Asp-phe), reference compound], in the series on KS1767 cells, the half-maximal inhibitory concentration (IC50) was roughly 2470 nM. The “Blockage of Cy5.5-c(KRGDf) binding to KS1767 cells” value at αvβ3 integrin (unconjugated peptide added one hour before 6 μM Cy5.5-c(KRGDf)) is given as “dose-dependent blockage”. The “Effect of pretreatment on uptake of fluorophores in KS1767 tumors” value in the series with KS1767 tumors [2] (100-fold c(KRGDf) injected 1 hour before Cy5.5-c(KRGDf)) was “blocked the uptake”. In the series with KS1767 tumors [3] (c(KRGDf) 600 nmol, interval between injections 1 hr), the “Effect of preinjection on uptake of Cy5.5-c(KRGDf) in the tumor” value is reported as “blocked the uptake”.
In series [4], Cy5.5-c(KRGDf; SEQ ID NO. 3) (peptide) gave an IC50 of inhibition of adhesion of KS1767 cells to vitronectin-coated microplate wells of 1.11 µM.
Still for that read-out and setting: the same measure for “cyclo(Lys-Arg-Gly-Asp-phe), c(KRGDf; SEQ ID NO. 3) (peptide)”: 2.47 µM.
As for `CC(C)C[C@@H]1NC(=O)[C@H]([C@@H](C)O)NC(=O)[C@H](Cc2ccccc2)NC(=O)CNC(=O)[C@H](Cc2c[nH]c3ccccc23)NC(=O)[C@H](Cc2c[nH]cn2)NC(=O)[C@H]([C@@H](C)O)NC(=O)[C@H]([C@@H](C)O)NC(=O)[C@H](C)NC(=O)CCNC1=O` [c(ATTHWGFTLβA; SEQ ID NO. 2)] (HELM PEPTIDE1{A.T.T.H.W.G.F.T.L.[bAla]}$PEPTIDE1,PEPTIDE1,1:R1-10:R2$$$V2.0; bridges inferred), the “Degradation in culture medium” value in series [5] is given as “no apparent degradation”. The “Degradation over the course of the study” value in series [5] (5 days) was “no degradation”.
As for `CC(C)C[C@@H]1NC(=O)[C@H]([C@@H](C)O)NC(=O)[C@H](Cc2ccccc2)NC(=O)CNC(=O)[C@H](Cc2c[nH]c3ccccc23)NC(=O)[C@H](Cc2c[nH]cn2)NC(=O)[C@H]([C@@H](C)O)NC(=O)[C@H]([C@@H](C)O)NC(=O)[C@@H](N)CSSC[C@@H](C(N)=O)NC1=O` [c(CTTHWGFTLC; SEQ ID NO. 1), reference compound] (HELM PEPTIDE1{C.T.T.H.W.G.F.T.L.C.[am]}$PEPTIDE1,PEPTIDE1,1:R3-10:R3$$$V2.0), in series [5], the “Degradation in culture medium” value is on record as “degrades completely”. For the same compound, the metabolised at 3 h, 1 mg/ml in series [5] (serum-containing culture medium (DMEM/F-12 Ham with 10% FBS), after 3 hours, read-out: Peptide degraded) is greater than 90%.
`CC[N+]1=C(C=CC=CC=C2N(CCCCCC(=O)NCCCC[C@@H]3NC(=O)[C@@H](Cc4ccccc4)NC(=O)[C@H](CC(=O)O)NC(=O)CNC(=O)[C@H](CCCNC(=N)N)NC3=O)c3ccc4c(S(=O)(=O)O)cc(S(=O)(=O)O)cc4c3C2(C)C)C(C)(C)c2c1ccc1c(S(=O)(=O)[O-])cc(S(=O)(=O)O)cc21` [Cy5.5-c(KRGDf; SEQ ID NO. 3)] displayed an IC50 in the series with KS1767 cells of roughly 1110 nM. Besides, the “In vitro binding to αvβ3” value at αvβ3 integrin (KS1767 cells, 6 μM imaging agent) is “demonstrated”. Also, in the series with KS1767 tumors [2] (ex vivo, KS1767 tumor excised 48 hr after i.v. injection), the “Localization in excised tumor and adjacent muscle tissue (fluorescence microscopy)” value is “localized to the tumor, but not to the muscle cells”. For the same compound, the “Tumor targeting / uptake in NIR image” value in the series with KS1767 tumors [2] (subcutaneous KS1767 tumors, i.v. 6 nmol/mouse, image 24 hours after injection) is “clearly showed targeting”. Further, the “Rate of uptake in KS1767 tumors compared with muscle” value with KS1767 tumors [3] (6 nmol/mouse i.v., dynamic imaging up to 20 min) is “faster”. Besides, the “Rate of uptake in the tumor after preinjection of c(KRGDf)” value in the series with KS1767 tumors [3] (c(KRGDf) 600 nmol, interval between injections 24 hr) was “partially recovered”.
For `CC1(C)C(=CC=C2CCCC(C=CC3=[N+](CCCCS(=O)(=O)O)c4ccc(S(=O)(=O)[O-])cc4C3(C)C)=C2Oc2ccc(S(=O)(=O)O)cc2)N(CCCCCC(=O)NCCCC[C@@H]2NC(=O)[C@@H](Cc3ccccc3)NC(=O)[C@H](CC(=O)O)NC(=O)CNC(=O)[C@H](CCCNC(=N)N)NC2=O)c2ccc(S(=O)(=O)O)cc21` [IRDye800-c(KRGDf; SEQ ID NO. 3)], the IC50 in the series with KS1767 cells was roughly 2580 nM. The “Visualization of tumor in NIR image” value was “clearly visualized” in series [1] and “not” in series [6] (M21-L melanoma, 24 hr after i.v. injection, 3 nmol/mouse). In addition, the Tumor-to-background ratio in series [1] (mice with M21 tumors, from fluorescence intensity in region-of-interest) is 1.7; in series [6] (mice with M21-L tumors, from fluorescence intensity in region-of-interest) it was 1.1.

Source of the values: US7371364B2, “Cyclic peptide and imaging compound compositions and uses for targeted imaging and therapy” (Board of Regents, The University of Texas System, priority 2003, dated 2008).
